# From patent US20250230171A1 (MOMA Therapeutics, Inc., priority 2023, published 2025)
# Where two headings read alike, the source gives them in different places.
# Experiments:
# [1] = target: biotinylated Avi-POLθ[2-894] (Homo sapiens (Human), UniProt O75417); assay: POLθ ATPase assay (ADP-Glo); conditions: n=2, read-out: Biochemical ATPase ADPGlo IC50
# DLD1 BRCA2 (−/−) cells = assay: 7-day cell viability assay (CellTiter-Glo), DLD1 BRCA2 (−/−); format: cell-based, human; conditions: Homo sapiens, DLD-1, 168 h, n=2, read-out: Viability IC50 (uM) DLD1 BRCA2 null
# Procedure, shortened: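 7-day growth assay in DLD1 cells with or without BRCA2; seeding densities chosen to keep log-linear growth. Compound: 10 uM top, 3-fold, 9 points. Endpoint: CTG ATP luminescence at RT.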
# DLD1 WT cells = assay: 7-day cell viability assay (CellTiter-Glo), DLD1 parental (WT); format: cell-based, human; conditions: Homo sapiens, DLD-1, 168 h, n=2
# biotinylated Avi-POLθ[2-894], sequence (O75417 2-894): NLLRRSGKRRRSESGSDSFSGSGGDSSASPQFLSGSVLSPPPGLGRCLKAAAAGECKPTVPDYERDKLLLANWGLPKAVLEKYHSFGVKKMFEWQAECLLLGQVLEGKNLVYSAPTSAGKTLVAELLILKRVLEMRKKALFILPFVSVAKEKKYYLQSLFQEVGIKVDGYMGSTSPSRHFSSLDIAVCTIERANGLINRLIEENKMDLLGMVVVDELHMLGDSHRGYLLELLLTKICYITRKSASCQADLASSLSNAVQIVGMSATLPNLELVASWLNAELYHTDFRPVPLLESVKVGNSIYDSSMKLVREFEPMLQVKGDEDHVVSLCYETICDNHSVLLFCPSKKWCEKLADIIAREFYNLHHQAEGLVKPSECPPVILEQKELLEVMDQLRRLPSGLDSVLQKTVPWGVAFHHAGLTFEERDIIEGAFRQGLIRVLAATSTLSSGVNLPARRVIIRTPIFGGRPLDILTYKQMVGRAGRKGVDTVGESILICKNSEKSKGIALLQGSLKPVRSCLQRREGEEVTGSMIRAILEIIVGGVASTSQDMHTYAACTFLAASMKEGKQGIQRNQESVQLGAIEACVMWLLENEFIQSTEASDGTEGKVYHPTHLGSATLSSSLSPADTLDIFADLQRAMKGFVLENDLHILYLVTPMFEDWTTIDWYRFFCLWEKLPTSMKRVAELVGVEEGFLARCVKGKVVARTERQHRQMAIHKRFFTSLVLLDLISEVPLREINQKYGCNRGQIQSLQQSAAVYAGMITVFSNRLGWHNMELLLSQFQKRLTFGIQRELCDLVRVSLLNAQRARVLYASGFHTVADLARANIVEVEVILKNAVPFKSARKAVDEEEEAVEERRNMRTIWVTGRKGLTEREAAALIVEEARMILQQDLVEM
Compound,IC50 [1] [µM],IC50 (DLD1 BRCA2 (−/−) cells; 7-day viability) [µM],"IC50 ([1]; POLθ ATPase, ADP-Glo) [µM]",IC50 (DLD1 BRCA2 (−/−) cells; 7-day CellTiter-Glo) [µM],IC50 (DLD1 WT cells; 7-day viability) [µM],IC50 (DLD1 WT cells; 7-day CellTiter-Glo) [µM]
"COc1cnc(Cl)cc1-c1cc(C)ncc1C(=O)Nc1nc2c(s1)CN(C(=O)c1ccc(Cl)nc1)C2 [Example 13, 2′-chloro-N-(5-(6-chloronicotinoyl)-5,6-dihydro-4H-pyrrolo[3,4-d]thiazol-2-yl)-5′-methoxy-6-methyl-[4,4′-bipyridine]-3-carboxamide]",0.001 to 0.015,0.001 to 0.1,–,–,≥ 10,–
COc1cnc(Cl)cc1-c1cc(C)ncc1C(=O)Nc1nc2c(s1)CN(C(=O)c1cccn3nccc13)C2 [Example 424],–,–,0.001 to 0.015,0.001 to 0.1,–,≥ 10
COc1cnc(Cl)cc1-c1cc(C)ncc1C(=O)Nc1nc2c(s1)CN(C(=O)c1ccc(F)c(C(F)F)n1)C2,–,–,0.001 to 0.015,0.001 to 0.1,–,≥ 10
COc1ccc(C#N)cc1-c1cc(C)ncc1C(=O)Nc1nc2c(s1)CN(C(=O)c1ccccn1)C2 [Example 276],0.001 to 0.015,≥ 2,–,–,≥ 10,–
COc1ccc(C#N)cc1-c1cc(C)ncc1C(=O)Nc1nc2c(s1)CN(S(=O)(=O)N1CCCCC1)C2,0.001 to 0.015,0.5 to 2,–,–,≥ 10,–
CCNS(=O)(=O)N1Cc2nc(NC(=O)c3cnc(C)cc3-c3cc(C#N)ccc3OC)sc2C1 [Example 299],0.001 to 0.015,0.5 to 2,–,–,≥ 10,–
COc1ccc(C#N)cc1-c1cc(C)ncc1C(=O)Nc1nc2c(s1)CN(C(=O)C1CC(OC(C)C)C1)C2 (racemic) [Example 166],0.001 to 0.015,0.25 to 0.5,–,–,≥ 10,–
COc1ccccc1-c1cc(C)ncc1C(=O)Nc1nc2c(s1)CN(C(=O)C1CC1)C2,0.15 to 0.9,≥ 2,–,–,≥ 10,–
COc1cnc(Cl)cc1-c1cc(C)ncc1C(=O)Nc1nc2c(s1)CN(C(=O)c1nn(C)cc1OC)C2 [Example 157],0.001 to 0.015,0.25 to 0.5,–,–,≥ 10,–
COc1ccc(C#N)cc1-c1cc(C)ncc1C(=O)Nc1nc2c(s1)CN(S(=O)(=O)NCC(C)C)C2,0.001 to 0.015,0.5 to 2,–,–,≥ 10,–
COc1ccccc1-c1cc(C)ncc1C(=O)Nc1nc2c(s1)CN(Cc1ccccc1)CC2,≥ 0.9,0.5 to 2,–,–,0.5 to 2,–
COc1ccc(C#N)cc1-c1cc(C)ncc1C(=O)Nc1nc2c(s1)CN(S(=O)(=O)C1CC1)C2,0.015 to 0.05,≥ 2,–,–,≥ 10,–
COc1cnc(Cl)cc1-c1cc(C)ncc1C(=O)Nc1nc2c(s1)CN(C(=O)c1ccn(C(F)F)n1)C2 [Example 159],0.001 to 0.015,0.1 to 0.25,–,–,≥ 10,–
COc1cnc(Cl)cc1-c1cc(C)ncc1C(=O)Nc1nc2c(s1)CN(C(=O)c1cnc(C(F)(F)F)cn1)C2,–,–,0.001 to 0.015,0.001 to 0.1,–,≥ 10
COc1ccc(C#N)cc1-c1cc(C)ncc1C(=O)Nc1nc2c(s1)CN(C(=O)[C@H]1C[C@@H](C#N)C1)C2,0.001 to 0.015,≥ 2,–,–,≥ 10,–
"COc1cnc(Cl)cc1-c1cc(C)ncc1C(=O)Nc1nc2c(s1)CN(C(=O)c1cnn(C)c1C(F)(F)F)C2 [Example 84, 2′-chloro-5′-methoxy-6-methyl-N-(5-(1-methyl-5-(trifluoromethyl)-1H-pyrazole-4-carbonyl)-5,6-dihydro-4H-pyrrolo[3,4-d]thiazol-2-yl)-[4,4′-bipyridine]-3-carboxamide]",0.001 to 0.015,0.001 to 0.1,–,–,≥ 10,–
COc1ccc(C#N)cc1-c1cc(C)ncc1C(=O)Nc1nc2c(s1)CN(S(=O)(=O)NC(C)(C)C)C2,0.001 to 0.015,≥ 2,–,–,≥ 10,–
COc1cnc(Cl)cc1-c1cc(C)ncc1C(=O)Nc1nc2c(s1)CN(C(=O)[C@H]1C[C@@H](OC)C1)C2 [Example 171],0.001 to 0.015,0.1 to 0.25,–,–,≥ 10,–
COc1cnc(Cl)cc1-c1cc(C)ncc1C(=O)Nc1nc2c(s1)CN(C(=O)c1ccnc(C)n1)C2,–,–,0.001 to 0.015,0.001 to 0.1,–,5 to 10
COc1ccc(C#N)cc1-c1cc(C)ncc1C(=O)Nc1nc2c(s1)CN(C(=O)c1cccc(C(F)F)c1)C2,–,–,0.001 to 0.015,0.1 to 0.25,–,≥ 10

# Further lines, with some results ahead:
IC50 [1] [µM],IC50 (DLD1 BRCA2 (−/−) cells; 7-day viability) [µM],"IC50 ([1]; POLθ ATPase, ADP-Glo) [µM]",IC50 (DLD1 BRCA2 (−/−) cells; 7-day CellTiter-Glo) [µM],Compound,IC50 (DLD1 WT cells; 7-day viability) [µM],IC50 (DLD1 WT cells; 7-day CellTiter-Glo) [µM]
0.001 to 0.015,0.5 to 2,–,–,COc1ccc(C#N)cc1-c1cc(C)ncc1C(=O)Nc1nc2c(s1)CN(C(=O)C1CC(C(F)F)C1)C2 (stereo not drawn) [Example 244],≥ 10,–
–,–,0.001 to 0.015,0.001 to 0.1,COc1ccc(C#N)cc1-c1cc(C)ncc1C(=O)Nc1nc2c(s1)CN(C(=O)c1ccc(C(F)F)c(F)c1)C2,–,≥ 10
0.001 to 0.015,0.001 to 0.1,–,–,COc1cnc(Cl)cc1-c1cc(C)ncc1C(=O)Nc1nc2c(s1)CN(C(=O)c1ccc(C(F)(F)F)cn1)C2 [Example 132],5 to 10,–
0.001 to 0.015,0.001 to 0.1,–,–,"COc1cnc(Cl)cc1-c1cc(C)ncc1C(=O)Nc1nc2c(s1)CN(C(=O)c1c(C)nn(C)c1C(F)F)C2 [Example 6, 2′-chloro-N-(5-(5-(difluoromethyl)-1,3-dimethyl-1H-pyrazole-4-carbonyl)-5,6-dihydro-4H-pyrrolo[3,4-d]thiazol-2-yl)-5′-methoxy-6-methyl-[4,4′-bipyridine]-3-carboxamide]",≥ 10,–
0.001 to 0.015,0.001 to 0.1,–,–,"COc1cnc(Cl)cc1-c1cc(C)ncc1C(=O)Nc1nc2c(s1)CN(C(=O)c1cc(Cl)ccn1)C2 [Example 78, 2′-chloro-N-(5-(4-chloropicolinoyl)-5,6-dihydro-4H-pyrrolo[3,4-d]thiazol-2-yl)-5′-methoxy-6-methyl-[4,4′-bipyridine]-3-carboxamide]",5 to 10,–
0.001 to 0.015,0.001 to 0.1,–,–,COc1cnc(Cl)cc1-c1cc(C)ncc1C(=O)Nc1nc2c(s1)CN(C(=O)c1cnn(C)c1Cl)C2,≥ 10,–
0.001 to 0.015,0.5 to 2,–,–,COc1ccc(C#N)cc1-c1cc(C)ncc1C(=O)Nc1nc2c(s1)CN(C(=O)c1cccc(C)n1)C2,≥ 10,–
0.001 to 0.015,0.001 to 0.1,–,–,"CCc1cc(C(=O)N2Cc3nc(NC(=O)c4cnc(C)cc4-c4cc(Cl)ncc4OC)sc3C2)n(C)n1 [Example 57, 2′-chloro-N-(5-(3-ethyl-1-methyl-1H-pyrazole-5-carbonyl)-5,6-dihydro-4H-pyrrolo[3,4-d]thiazol-2-yl)-5′-methoxy-6-methyl-[4,4′-bipyridine]-3-carboxamide]",≥ 10,–
0.001 to 0.015,0.001 to 0.1,–,–,COc1cnc(Cl)cc1-c1cc(C)ncc1C(=O)Nc1nc2c(s1)CN(C(=O)c1nn(C)c(C)c1F)C2 [Example 66],5 to 10,–
0.001 to 0.015,0.001 to 0.1,–,–,"COc1cnc(Cl)cc1-c1cc(C)ncc1C(=O)Nc1nc2c(s1)CN(C(=O)c1ncc(Cl)cn1)C2 [Example 35, 2′-chloro-N-(5-(5-chloropyrimidine-2-carbonyl)-5,6-dihydro-4H-pyrrolo[3,4-d]thiazol-2-yl)-5′-methoxy-6-methyl-[4,4′-bipyridine]-3-carboxamide]",2 to 5,–
0.001 to 0.015,0.1 to 0.25,–,–,COc1cnccc1C(=O)N1Cc2nc(NC(=O)c3cnc(C)cc3-c3cc(Cl)ncc3OC)sc2C1 [Example 168],≥ 10,–
0.001 to 0.015,0.5 to 2,–,–,COc1ccc(C#N)cc1-c1cc(C)ncc1C(=O)Nc1nc2c(s1)CN(C(=O)c1ncccc1C)C2,≥ 10,–
